This is an account of results in patent EP4663204A1, “COMPOUNDS USEFUL FOR THE MODULATION OF THE ACTIVITY OF STING” (Sulis Therapeutics ApS, priority 2024, dated 2025).

Entries after “also recorded” stand apart in the source; their conditions may differ.

For series [1], the target named is T1, STING (Homo sapiens, UniProt Q86WV6). Put plainly: Western Blot analysis for STING degradation in H596, H1650 and HaCat cells. The following applies: 0.22 µM, 0.67 µM, 2 µM and 6 µM, 24h, Figure 4. The class given is cell-based. As to the method: To assess STING degradation in H596 cells (ATCC, HTB-178) cells were seeded at a density of 100.000 cells/well in 24-well Nunclon Delta surface treated culture plate in RPMI-1640 growth medium (supplemented with 10% FBS, 1% Pen-strep). Cells were incubated over-night at 37°C 5% CO2 to allow adhesion. Next day growth medium was renewed and a 5x concentration of test compounds (2.5% DMSO) diluted in growth medium were added to the appropriate well. Final DMSO concentration was 0.5%. Cell culture plates were returned to the incubator for additional 24h. The same protocols were used to grow H1650 and HaCat cells except that cells were seeded at a density of 150,000 cells/well and 250,000 cells/well, respectively
Final test compound concentrations were 0.22 µM, 0.67 µM, 2 µM and 6 µM.
For cell lysis, western blotting and data analysis, the following methods were applied.
For cell lysing for Western Blot analysis cell culture plates were brought to ice, supernatant was removed by aspiration and cells washed 2x in ice-cold DPBS. […] Samples were either analysed directly or stored at -80°C until analysis.
For Western Blotting, total protein concentration in each lysate was determined using PIERCE Gold BCA Assay kit according to manufactures protocol. […]
Background: A western blot detects proteins with antibodies after separation by electrophoresis.

Series [2] relates to CXCL10, IL-6, MCP-1 (CCL2), MIP-1α (CCL3) and IFN-γ. Kind of series: Serum cytokine and chemokine levels in mice, with or without LPS (V-Plex immunoassay). The class given is in vivo. Conditions: compound followed by LPS 16 hours later. As to the method:
A compound of the invention (Example compound 12; "Ex 12"), or a control S1-L-E compound (control Example compound 7; "Ex 7"), were administered to subjects following the in vivo protocol of Example 1. 16 hours after that administration, some subjects were administered lipopolysaccharide (LPS).
In subjects that received LPS alone, serum levels of CXCL10, IL-6, MCP-1 (CCL2) and MIP-1α (CCL3) were raised 100-1000 fold above the levels in control subjects that received vehicle alone. (In both cases, IFN-γ levels were below the 10 pg/mL threshold of detection.) In subjects that received the compound of the invention, followed by LPS 16 hours later, CXCL10, IL-6, MCP-1 (CCL2) and MIP-1α (CCL3) levels were a further ten-fold higher than the levels in subjects that received LPS alone (see Figure 2). […] IFN-γ levels were only detectable in subjects that had been administered the compound of the invention, with LPS treatment after 16 hours resulting in a further elevation in IFN-γ levels to a small extent. Quantification of cytokines and chemokines was performed on individual serum samples that were stored frozen (≤ -20 °C) after collection, using the electrochemiluminescence-based immunoassay and a custom mouse 5-plex panel according to the manufacturer's instructions (V-Plex assay, Mesoscale Discovery, USA).

For another series, the target named is T2, wild-type STING (Homo sapiens, UniProt Q86WV6).
T2 construct: compared to healthy donor primary fibroblast cells; endogenous in cells; host or cells: healthy donor primary fibroblasts
Put plainly: Western Blot analysis for STING degradation in healthy donor primary fibroblast cells. The class given is cell-based. The following applies: healthy donor fibroblasts; 1 µM; 20 hours; Figure 7. As to the method:
(§1) For this study, STING degradation was assessed in primary fibroblast cells with constitutively active STING (comprising a N154S mutation), derived from SAVI patients, and compared to healthy donor primary fibroblast cells.
(§2) Cells were seeded at 50,000 cells/well and cultured under standard conditions for 24 hours. Media was replaced with test compound and incubated for 20 hours prior to analysis.
(§3) Cell culture medium was replaced with fresh medium containing 1 µM Example compound and incubated for 20 hours. For cell lysis and western blotting, the methods described above for HFF-1 cells were applied.

For series [3], the target named is T3, constitutively active STING (comprising a N154S mutation) (Homo sapiens, UniProt Q86WV6, N154S).
T3 construct: primary fibroblast cells with constitutively active STING (comprising a N154S mutation), derived from SAVI patients; endogenous in cells; host or cells: SAVI patient primary fibroblasts
Kind of series: Western Blot analysis for STING degradation in SAVI patient primary fibroblast cells. The class given is cell-based. Conditions: SAVI patient fibroblasts (N154S); 1 µM; 20 hours; Figure 7. How it is done:
as §1, §2, §3

Series [4] is described as follows: Pharmacokinetic profiling in mouse. The class given is in vivo. Conditions: plasma, sc, mice, subcutaneous injection (8 mg/kg stated for Example compound 12), 8 hours after injection. As to the method: Mice were administered with 8 mg/kg Example compound 12 by subcutaneous injection. Plasma concentration of test compound was measured over the course of 8 hours.

For series [5], the target named is T1, STING. Put plainly: Western Blot analysis for STING recovery following compound washout in HFF-1 cells. Set-up: To assess STING degradation and recovery in human foreskin fibroblasts HFF-1 cells; host or cells: HFF-1 human foreskin fibroblasts. Conditions: 24 hours treatment, 48 hours after washout, Figure 6. The class given is cell-based. As to the method: To assess STING degradation and recovery in human foreskin fibroblasts HFF-1 cells (ATCC, SCRC-1041) cells were seeded at a density of 60.000 cells/well in 24-well Nunclon Delta surface treated culture plate in DMEM growth medium (supplemented with 10% FBS, 1% Pen-strep). Cells were incubated over-night at 37°C 5% CO2 to allow adhesion. Next day growth medium was renewed and a 5x concentration of test compounds (2.5% DMSO) diluted in growth medium were added to the appropriate well. The final DMSO concentration were 0.5%. Cell culture plates were returned to the incubator for additional 24h.
Methods as described above for H596, H1650 and HaCat cells were applied for cell lysis and western blotting. Following 24 hours incubation with the test compounds, cell culture medium containing Example compound was removed, cells washed with fresh medium without Example compound, and incubated in fresh medium without Example compound for the indicated time.

T1 sequence (Q86WV6 whole entry): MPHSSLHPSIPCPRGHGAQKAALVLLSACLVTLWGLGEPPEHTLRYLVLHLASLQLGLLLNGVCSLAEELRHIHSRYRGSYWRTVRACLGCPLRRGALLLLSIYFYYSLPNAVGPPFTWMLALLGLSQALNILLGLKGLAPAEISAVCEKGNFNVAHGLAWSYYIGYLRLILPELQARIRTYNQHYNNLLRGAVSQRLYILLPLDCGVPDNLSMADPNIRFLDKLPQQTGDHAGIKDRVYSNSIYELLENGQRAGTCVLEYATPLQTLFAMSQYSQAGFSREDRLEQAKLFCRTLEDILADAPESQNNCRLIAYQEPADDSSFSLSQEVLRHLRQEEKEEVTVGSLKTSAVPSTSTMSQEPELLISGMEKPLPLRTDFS
T2 sequence (Q86WV6 whole entry): as above
T3 sequence (Q86WV6 whole entry N154S): as the sequence (Q86WV6 whole entry) above, with N154S counted along it

With `CCn1nc(C)cc1C(=O)N=c1n(C)c2cc(C(N)=O)ccc2n1CCC(CCn1c(=NC(=O)c2cc(C)nn2CC)n(C)c2cc(C(N)=O)ccc21)OCC(=O)NCCOCCOCCOCCOCCC(=O)NCCOCCOCCOCCOCC(=O)N[C@H](C(=O)N1C[C@H](O)C[C@H]1C(=O)NCc1ccc(-c2scnc2C)cc1)C(C)(C)C` (stereo partly shown) [Example compound 6], the STING degradation result at STING [1] was “induction of STING degradation; also recorded: induces visible degradation in H1650 and H596 at higher concentrations”.

For `CCn1nc(C)cc1C(=O)N=c1n(C)c2cc(C(N)=O)ccc2n1CCC(CCn1c(=NC(=O)c2cc(C)nn2CC)n(C)c2cc(C(N)=O)ccc21)OCC(=O)NCCOCCOCCOCCOCCC(=O)NCCOCCOCCOCCOCCNc1cccc2c1C(=O)N(C1CCC(=O)NC1=O)C2=O` (stereo not shown) [Example compound 7], in series [2], the “CXCL10, IL-6, MCP-1 (CCL2) and MIP-1α (CCL3) levels relative to subjects that received LPS alone” value is listed as “only further elevated to a small extent”. Moreover, the STING degradation entry on STING [1] is “induction of STING degradation; also recorded: induce STING degradation in all cell lines tested at all concentrations tested”; on wild-type STING, “induce STING degradation”; in series [3], “induce STING degradation”. Further, in series [4], the concentration at 8 h is about 100 nM. In addition, the “STING protein recovery after washout” value at STING [5] is “fail to recover to pre-treatment levels”.
